ChEMBL document CHEMBL1130033, “17 beta-(3-furyl)-5 beta-androstane-3 beta, 14 beta, 17 alpha-triol (PST 2238). A very potent antihypertensive agent with a novel mechanism of action” (J Med Chem, 1997)
pIC50: −log10 of the molar value.

Target: Sodium/potassium-transporting ATPase
Test: Ability to displace [3H]ouabain from Na+/K+ ATPase in dog kidney.
Type: protein-complex assay, Canis lupus familiaris

C[C@]12CC[C@H](O)C[C@H]1CC[C@@H]1[C@@H]2CC[C@]2(C)[C@@](O)(c3ccoc3)CC[C@]12O [ROSTAFUROXIN]
pIC50: 5.82
